Data published in patent publication US7160684B2, “Methods of selecting compounds for modulation of bladder function” (Wyeth, priority 2000, dated 2007).

Tests used:
[1] = test system: cultured human bladder smooth muscle cells; test: Voltage clamp recording of outward current, human cells; type: cell-based; settings: human bladder smooth muscle cells, FIG. 3d
Procedure: Single cell recordings are performed with a List-Medical EPC-7 patch clamp amplifier (Adams & List Assoc., Westbury, N.Y.). Pipette electrodes had tip resistances of 2–4 MΩ and are filled with the following composition (mM): KCl (126.0), MgCl2.6H2O (4.5), ATP Mg salt (4.0), GTP tris salt (0.3), creatine PO4 (14.0), D-glucose (9.0), EGTA (9.0), HEPES (9.0). The pH is adjusted to 7.4 with KOH. Signals are acquired (3 kHz high frequency cut-off, 12 bit resolution) using a 586-based personal computer.
Whole cell recordings are made using broken patch access. Currents are evoked using either voltage steps (Vh=−50; Vt=−60 to 40 mV) or voltage ramps (−60 to 40 mV at 3.3 mV/sec.). The exact voltage clamp protocols are well known in the art. After stability is achieved control currents are recorded. Next, test compound is added to the superfusate. Currents are recorded for 5 to 10 minutes or until compound effects reach steady state. This is followed either by washout or addition of antagonists (linopirdine, XE-991) to the superfusate.
Cellular electrophysiological studies were conducted using both voltage and current clamp techniques (Hammill, O., P., Marty, A., Neher, E., Sakmann, B. & Sigworth, F. J.: Improved patch-clamp techniques for high-resolution current recordings from cells and cell-free membrane patches. Pflugers Arch 391: 85–100 (1981)) from Sprague-Dawley rat (200–400 grams) bladders as previously described, (Wojdan, A., Freeden, C., Woods, M., Oshiro, G., Spinelli, W. et al., J. Pharmacol Exp Therap 289: 1410–1418 (1999)) and from a human bladder, primary cell culture (Colnetics, San Diego, Calif.). In rat cells, the average, control resting membrane potential (RMP) was −29.0±4.5 mV. […]
Rat bladder strips were isolated and prepared as previously described (Wojdan, A., Freeden, C., Woods, M., Oshiro, G., Spinelli, W. et al., J Pharmacol ExpTherap 289:1410–1418 (1999)). […] Message for KCNQ subunits was probed using quantitative rtPCR on an ABI PRISM 7700 Sequence Detection System (TAQMAN). […]

rat bladder micturition = test: Rat bladder cystometry, hyperreflexic bladder (0.25% acetic acid infusate); type: in vivo
Procedure: Micturition frequency is enhanced by the stimulation of sensory afferents using a dilute acetic acid solution in the cystometric infusate as previously described by Birder and de Groat (Birder L A. de Groat W C. Increased c-fos expression in spinal neurons after irritation of the lower urinary tract in the rat. J Neuroscience 12: 4878–89, (1992)). Briefly, female Sprague-Dawley rats (190–210 g) are anesthetized with urethane (lg/kg/10 mL, i. p.; 1 g/kg/10 mL, s. q.). The trachea is cannulated with PE205 to ensure a patent airway. The external jugular is cannulated with PE50 tubing for administration of compound. The bladder is exposed through a midline incision, and an angiocatheter (24 g, TEFLON), is heat flared at the end and inserted into the dome of the bladder and secured with 4-0 silk. The bladder is flushed with normal saline and allowed to equilibrate for 1 hour before cystometry is performed. Using a “T” connector, the bladder catheter is connected to a Statham pressure transducer (Model P23Db) and to a Harvard infusion pump. Cystometric recordings are monitored on a GRASS polygraph while infusing the bladder with saline containing 0.25% acetic acid at a rate of 2.4 mL/hr. for one hour. Next, compound is administered intravenously and the cystometry monitored for an additional 2 hours. The following cystometric parameters are recorded: micturition interval, micturition amplitude, micturition threshold pressure, bladder capacity, bladder compliance and the number of spontaneous bladder contractions (SBC) during the filling phase. The control period is taken as the 30 minute time period of acetic acid saline perfusion before dosing.
Rat bladder micturition frequency (enhanced by infusate containing 0.25% acetic acid (Birder, L. A., & deGroat, W., C. Increased c-fos expression in spinal neurons after irritation of the lower urinary tract in the rat. J Neurosc 12: 4878–4889 (1992))) was inhibited by retigabine in a dose-dependent (0.1–10 mg/kg, i.p.) manner. At 10 mg/kg, micturition was blocked in 100% of animals dosed; the population ED50 was 1–2 mg/kg (n=5–8). Micturition block lasted for up to 90 minutes (FIG. 4a).
Rat bladder strips were isolated and prepared as previously described (Wojdan, A., Freeden, C., Woods, M., Oshiro, G., Spinelli, W. et al., J Pharmacol ExpTherap 289:1410–1418 (1999)). Preparations were contracted with either 20 or 60 mM KCl, or 200 nM carbachol. A five minute area under the contraction curve was acquired 20 minutes after addition of each concentration of retigabine using a 12 bit D/A and a 586 based personal computer running custom software. Message for KCNQ subunits was probed using quantitative rtPCR on an ABI PRISM 7700 Sequence Detection System (TAQMAN). Forward and reverse primers and TAQMAN probes were designed using published RNA sequences for human KCNQ1–5 and rat KCNQ 1–4 listed within the NCBI data base. Since no rat sequence for KCNQ5 were currently published, probes and primers were designed by BLAST analysis of rat Expressed Sequence Tags (EST) using the known mouse KNCQ5 sequence. From homologous EST sequences, a contiguous sequence of 384 base pairs was constructed. Probes and primers were designed against this sequence. BLAST analysis of our rat KCNQ5 probes and primer were selective for mouse and human KCNQ5 sequences. PCR products were confirmed by gel electrophoresis (data not shown). Cells for electrophysiology were prepared from rat bladder smooth muscle as previously described (Wojdan et al., 1999). Human bladder smooth muscle cells were obtained from Clonetics, San Diego, Calif. Cells were removed from culture with trypsin and added directly into the recording chamber. All recordings were made at 320 C and acquired on a 586 based personal computer using pCLAMP (Axon Instruments) software. Current clamp recordings were performed with nystatin access as previously described (Wojdan et al.). […]

Compound: CCOC(=O)Nc1ccc(NCc2ccc(F)cc2)cc1N [retigabine, N-[2-amino-4-(4-fluorobenzylamino)-phenyl]carbamic acid ethyl ester]
- effect on outward current [1]: increased outward currents
- effect on outward current ([1]; listed as Retigabine): increased an outward current
- frequency of spontaneous contractions during bladder filling (rat bladder micturition; 0.1 mg/kg, in comparison to the control): significantly reduced
- inhibition of spontaneous contractions (rat bladder micturition; 1 mg/kg, i.p., p<0.05): 43.5±14.1%
- animals in which micturition was blocked (rat bladder micturition; 10 mg/kg, i.p.): 100%
- micturition (rat bladder micturition; 10 mg/kg, i.p., within minutes of dosing, four rats): completely blocked
- ED50 (rat bladder micturition; Rattus norvegicus, ip, n=5–8, read-out: population ED50 for micturition block): 1 to 2 mg/kg
- micturition frequency (rat bladder micturition; dose-dependent, 0.1–10 mg/kg, i.p.): inhibited
- duration of micturition block (rat bladder micturition; i.p., FIG. 4a): up to 90 minutes
